# Measured values reported in patent publication US4673692A, “Diphenylmethylimine derivatives, their compositions and pharmaceutical uses” (Teikoku Hormone Mfg. Co., Ltd., priority 1984, dated 1987).
# Tests used:
# [1] = Pharmacological actions of previously disclosed compound
# [2] = system: carrageenan paw edema; assay: Anti-inflammatory activity: carrageenan-induced hind paw edema; assay type: in vivo, Male Wistar rats; details: 10 mg/kg, p.o.; carrageenan 1 h after dosing, volume measured 3 h later; 5 rats per group
# Procedure: Male Wistar rats weighing 120 to 150 g which had been fasted for 24 hours were used in groups each consisting of 5 rats. In each group, the volumes of the right hind paw were measured by a volume differential meter (made by Ugo Basile Company), and each of the test compounds was suspended in an aqueous solution of 0.5% of carboxymethyl cellulose and 2.0% of Tween 80, and administered orally through a tube. After one hour from the administration, […] suspension of carrageenan in distilled water was subcutaneously injected into the plantar tissues of the right hind paw. Three hours later, the volumes of the right hind paw were again measured. The increase in volume of the right hind paw of each rat in each group (the volume of edema) was measured. The percent edema inhibition was calculated in accordance with the following equation, and the results are shown in Tale 1.
# [3] = system: stomach; assay: Ulcerogenic activity; assay type: in vivo, male Wistar rats; details: 300 mg/kg, p.o.; 4 hours after dosing; fasted rats
# Procedure: The test compound was orally administered by the same way as in the test on anti-inflammatory activity to male Wistar rats weighing 120 to 150 g which had been fasted for 24 hours. Four hours later, they were killed with ether.
# [4] = target: T1, 5-lipoxygenase (Rattus norvegicus, UniProt P12527); assay: 5-lipoxygenase inhibiting action (formation of 5-HETE and 5,12-diHETE) in white blood cells from rat pleural exudate; assay type: cell-based; details: 14C arachidonic acid, A23187, 2 minutes, read-out: concentration inhibiting 50% of the formation of 5-HETE
# T1 construct: endogenous in cells; host or cells: white blood cells from the pleural exudate of rats with carrageenan-induced pleurisy
# T1 sequence (P12527 1-673): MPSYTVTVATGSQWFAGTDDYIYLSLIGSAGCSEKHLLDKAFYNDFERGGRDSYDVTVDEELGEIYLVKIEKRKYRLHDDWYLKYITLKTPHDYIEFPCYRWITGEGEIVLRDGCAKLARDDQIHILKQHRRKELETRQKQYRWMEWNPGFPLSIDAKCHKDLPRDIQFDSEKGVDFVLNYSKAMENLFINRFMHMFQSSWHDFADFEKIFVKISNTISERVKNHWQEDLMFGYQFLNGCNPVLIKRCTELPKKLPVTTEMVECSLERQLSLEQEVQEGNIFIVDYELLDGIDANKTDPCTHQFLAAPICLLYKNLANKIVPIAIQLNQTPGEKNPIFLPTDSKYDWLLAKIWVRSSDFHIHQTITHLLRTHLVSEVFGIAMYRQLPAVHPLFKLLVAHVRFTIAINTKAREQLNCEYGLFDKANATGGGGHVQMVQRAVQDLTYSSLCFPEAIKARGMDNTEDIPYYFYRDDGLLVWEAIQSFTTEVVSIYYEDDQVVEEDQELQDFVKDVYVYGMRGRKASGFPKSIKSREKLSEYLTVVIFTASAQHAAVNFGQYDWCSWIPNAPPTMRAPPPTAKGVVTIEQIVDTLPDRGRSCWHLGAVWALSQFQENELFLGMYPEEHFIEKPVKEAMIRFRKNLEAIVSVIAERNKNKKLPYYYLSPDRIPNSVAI
# Procedure: (§1) The actions of the compounds of this invention to inhibit 5-lipoxygenase and cyclooxygenase activities were measured in accordance with the method of Siegel et al. [Prostaglandins, Vol. 21, page 123 (1981)].
# (§2) The exudate was extracted from the pleural cavity of a rat with carrageenan-induced pleurisy. White blood cells from the exudate were suspended in 50 mM Tris-HCl buffer (pH 7.4) containing 100 mM sodium chloride and 1 mM calcium chloride. To a fixed amount of the white blood cell suspension were added a test compound, ^14 C arachidonic acid and a calcium ionophore (A23187), and the mixture was incubated for 2 minutes. […] The radioactivity of each of the fractions was measured by a liquid scintillation counter, and the percentage of the radioactivity of each fraction based on the total radioactivity was calculated (the ratio of formation). The inhibition ratio of the test compound against the synthesis ability of each fraction was determined by using the ratio of formation as an index.
# (§3) The lipoxygenase activity was determined by using the formation of 5S-hydroxy-6,8,11,14-eicosatetraenoic acid (5-HETE) and 5S,12R-dihydroxy-6,8,10,14-eicosatetraenoic acid (5,12-diHETE) as indices. The cyclooxygenase activity was determined by using the formation of 12-hydroxyheptadecatrienoic acid (HHT) as an index. […]
# [5] = system: adjuvant-induced arthritis; assay: Preventive effect on adjuvant-induced arthritis; assay type: in vivo, Sprague-Dawley strain female rats
# Procedure: Sprague-Dawley strain female rats, 6 weeks old, were used. Killed and dried M. butyricum (Difco) were suspended (6 mg/ml) in light liquid paraffin, and the suspension was sterilized under pressure to form Freund's complete adjuvant. 0.1 ml of the Freund's complete adjuvant was injected subcutaneously into the right hind paws of the animals to induce arthritis. After the injection of the Freund's complete adjuvant, the test compound was orally administered once a day for 21 consecutive days including the day of injection. The volumes of the left and right hind paws were measured by using the device devised by Fujihira [Eiichi Fujihira: Oyo Yakuri 5, 169-182 (1971)], and the increases in volume from before the injection of the adjuvant was measured and used as an index of swelling. Changes in swelling after the stopping of drug administration were also examined. The animals were used in groups each consisting of 10 members.
# [6] = system: cyclooxygenase; assay: Cyclooxygenase inhibiting action (formation of HHT) in white blood cells from rat pleural exudate; assay type: cell-based; details: 14C arachidonic acid, A23187, 2 minutes, read-out: concentration inhibiting 50% of the formation of HHT
# Procedure: as §1, §2, §3
# [7] = system: granuloma formation; assay: Inhibitory effect on granuloma formation (filter paper implantation); assay type: in vivo, Wistar strain male rats; details: Rattus norvegicus, po, 168 h; once a day for 7 days; p<0.001, n=7-8; read-out: dose significantly decreasing the dry weight of granuloma
# Procedure: Wistar strain male rats were used. Under anesthesia with hexobarbital-Na (100 mg/kg, i.p.), the hair of the back of each rat was removed. Filter paper pieces prepared in tablet form (Toyo Filter Paper, No. 85K, 9 mm diameter) sterilized under pressure were implanted subcutaneously on the left and right sides of the back, and oily procaine penicillin G (a product of Banyu Pharmaceutical Co., Ltd.; 300,000 units/ml) was intramuscularly injected in an amount of 0.25 ml.
# After the implantation of the filter paper pieces, the test compound was orally administered once a day for 7 consecutive days including the day of implantation. On the day next to the day of the final administration, the filter paper pieces and granuloma formed around them were excised, and dried at about 60° C. for 24 hours. Their weight was measured. The weight of the filter paper pieces was subtracted, and the balance was defined as the dry amount of glanuloma.
compound,measurement,setting,value
CON=C(c1ccccc1)c1cc(C(C)(C)C)c(O)c(C(C)(C)C)c1,"pharmacological actions such as anti-inflammatory, analgesic or anti-rheumatic activity",[1],does not substantially show pharmacological actions
"CC(C)(C)c1cc(C(=NO)c2ccccc2)cc(C(C)(C)C)c1O [A, 3,5-di-t-butyl-4-hydroxybenzophenone oxime]",Percent inhibition (edema),[2],26.7%
same,gastric trouble,[3],no gastric trouble
same,IC50,[4],6.2 µM
same,minimal effective dose,"[5]; Rattus norvegicus, po, 504 h, once a day for 21 days, p<0.05, n=10, read-out: dose significantly inhibiting the development of adjuvant-induced arthritis",≥ 3 mg/kg
same,rebound phenomenon in swelling after the stopping of drug administration,[5]; after 21 days of oral administration,No rebound phenomenon was noted
same,IC50,[6],1.25 µM
same,minimal effective dose,[7],≥ 3 mg/kg
"CC(=O)ON=C(c1ccccc1)c1cc(C(C)(C)C)c(O)c(C(C)(C)C)c1 [B, 3,5-di-t-butyl-4-hydroxybenzophenone O-acetyloxime]",Percent inhibition (edema),[2],22.7%
"CCC(=O)ON=C(c1ccccc1)c1cc(C(C)(C)C)c(O)c(C(C)(C)C)c1 [C, 3,5-di-t-butyl-4-hydroxybenzophenone O-propionyloxime]",Percent inhibition (edema),[2],23.6%
"CC(C)(C)c1cc(C(=NN)c2ccccc2)cc(C(C)(C)C)c1O [D, 3,5-di-t-butyl-4-hydroxybenzophenone hydrazone]",Percent inhibition (edema),[2],21.0%
